Laboratory results published in US11969470B2, “Topiramate compositions and methods of making and using the same” (Regents of the University of Minnesota, priority 2006, dated 2024).

Columns and labels:
[1] = Open labeled single dose intravenous [13C]6-TPM/CAPTISOL study in adult patients on maintenance oral topiramate (pharmacokinetics and safety); format: in vivo, human; settings: for BP changes / EKG changes / Injection site irritation / Other adverse events / Pulse changes / Bioavailability (fraction of oral dose absorbed, AUCoral vs AUCiso) / Clearance / Distribution volume / Half life: IV dose 25 mg
Method: This was an open labeled, single dose study in adult patients on a maintenance dose of topiramate for treatment of either migraines or epilepsy.
Patients were instructed to take their evening topiramate dose the day before the study, then fast until after administration of study drug. On the day of the study, subjects were admitted to University of Minnesota General Clinical Research Center where a neurologist performed a brief physical and neurological exam, vital signs were recorded, an ECG strip was obtained, indwelling catheters were placed in the left and right forearms, and blood samples were drawn for baseline laboratory tests.
A baseline assessment of topiramate toxicity was performed using the following criteria: ataxia and nystagmus: 0=none, 1=mild, 2=severe. As used herein, “ataxia” is classified as “mild”—for unsteady with tandem gait testing, but able to perform without assistance, or as “severe”—unable to perform tandem gait testing without assistance
The [^13C]6-TPM was administered into the right arm catheter, while blood samples for laboratory tests were drawn from the left arm. Laboratory chemistries included albumin, blood chemistries, kidney and liver function test, and genotyping for drug disposition. A 25 mg [^13C]6-TPM dose was then infused over 10-20 minutes. The exact dose administered was determined gravimetrically from the pre- and post-dose syringe weights. At the end of the infusion, patients took their prescribed oral morning dose; thereafter they resumed their regular dosing regimen. Blood samples for pharmacokinetic analysis were taken at 0, 5 minutes, 15 minutes, 30 minutes, 1 hour, 2 hours, 4 hours, 6 hours, 10 hours, 24 hours, 48 hours, 72 hours and 96 hours after intravenous administration of the topiramate. Urine was collected from 0-24 hours for analysis of the parent drug to determine renal clearance. Urine volumes were measured and 15 mL aliquots were stored at −80° C. until analysis.
Topiramate was detected using a LC/MS method employing the electrospray ionization (ESI) and negative scan mode. This method is designed to measure both unlabeled topiramate and the stable-isotope topiramate using a negative ESI and SIM mode of liquid chromatograph mass spectrometer. The analytes were separated using ZORBAX® LC8/LC18 and a mobile phase consisting of ammonium acetate buffer and methanol. The data generated using CHEMSTATION® software (Agilent) and quantified using deuterated topiramate (“TPM-d12”, internal standard). Patient samples were run along with a 7-concentration standard curve (run in triplicate) and nine quality control samples (low, med and high also run in triplicates), analyzed in human plasma using liquid extraction with methyl-tert-butylether and negative ion electrospray mass spectrometry. The quantitative analysis was performed using selective ion monitoring mode for topiramate at m/z=338 and m/z=350 for TPM-d12 in the negative mode. The unlabeled topiramate calibration curve ranged from 0.05 μg/mL to 10 μg/mL.
Both stable-isotope topiramate and non-labeled topiramate concentration-time data was analyzed by non-compartmental methods to obtain AUC, clearance, half-life, and volume of distribution data. The AUC was determined by the trapezoidal rule and the terminal half-life was determined by linear regression of the terminal phase on log concentration vs. time plots. WINNONLIN® (Tripos L.L.P.), a pharmacokinetic data analysis package was used to fit the data to standard pharmacokinetic models (one and two-compartment models).
Elimination rate constant (kel): kel was determined by the best fit of the post-infusion isotope concentration-time data.
AUCiso=AUC0-96 hrs+Cp96 hrs/kel
Distribution Volume at Steady State (Vdss): Vdss was determined as follows: Vdss=Doseiso*AUMC/AUC where AUMC is the area under the first moment curve, and calculated by determining the area under the curve of a plot of the product of concentration and time versus time from zero time to infinity. […]

[2] = cited from earlier work
[3] = test system: AMPA-kainate receptor; settings: developing oligodendrocytes; similar to NBQX; cited from earlier work
[4] = test system: hypoxic-ischemic white matter injury; settings: administration post-insult in vivo; cited from earlier work
[5] = Topiramate phase solubility study with the cyclodextrin CAPTISOL
Method: A phase solubility study was conducted with the cyclodextrin CAPTISOL® and topiramate to evaluate the extent of solubilization of the drug by the derivatized cyclodextrin.
Solutions containing increasing amounts of dissolved CAPTISOL® brand of sulfobutylether-β-cyclodextrin were prepared and added to small glass vials. Excess solid topiramate was added to each vial and the vials were capped, vortexed and placed in constant agitation for five days at room temperature (about 23° C. to about 25° C.).
After the multi-day equilibration period, the vials were centrifuged (twice at 693×g, 25° C.) and aliquots were taken from the clear supernatant solutions. The aliquots were diluted 1:3 (1:5.67 for 40% cyclodextrin CAPTISOL® solutions) with mobile phase and analyzed by HPLC for topiramate content.
• HPLC: Dionex • Detection: Refractive Index Detector • Column: SB-Phenyl (5 μm) 250 mm×4.6 mm • Column Temperature: 35° C. • Mobile Phase: 40:60 (MeOH:Water) • Flow Rate: 1.0 mL/min isocratic • Run Time: 30 minutes • Sample Solvent: Mobile phase • Injection Volume: 50 μL • Retention Time: ˜12.5 minutes Mobile Phase Preparation

[6] = cited from earlier work; remark: listed apart in the source
[7] = administered parenterally, orally and via inhalation; compared with β-cyclodextrin; cited from earlier work
[8] = adult patients, summary of three subjects
[9] = subject TUMN1, oral dose 50 mg b.i.d.
[10] = subject TUMN2, oral dose 100 mg q.d.
[11] = subject TUMN3, oral dose 25 mg b.i.d.

Compound: CC1(C)O[C@@H]2[C@@H](CO[C@@]3(COS(N)(=O)=O)OC(C)(C)O[C@@H]23)O1 [Topiramate, 2,3:4,5-di-O-isopropylidene-β-D-fructopyranose sulfamate]
- distribution volume for intravenously administered topiramate [1, 8]: approximately 0.7 L/kg
- oral absorption [1, 8]: approximately 100%
- BP changes ([1]; subject TUMN1): None
- EKG changes ([1]; subject TUMN1): None
- Injection site irritation ([1]; subject TUMN1): None
- Other adverse events ([1]; subject TUMN1): None
- Pulse changes ([1]; subject TUMN1): None
- Bioavailability (fraction of oral dose absorbed, AUCoral vs AUCiso) [1, 9]: 102%
- Clearance [1, 9]: 1.01 L/h
- Distribution volume [1, 9]: 0.78 L/kg
- Half life [1, 9]: 30.5 h
- BP changes ([1]; subject TUMN2): None
- EKG changes ([1]; subject TUMN2): None
- Injection site irritation ([1]; subject TUMN2): None
- Other adverse events ([1]; subject TUMN2): None
- Pulse changes ([1]; subject TUMN2): None
- Bioavailability (fraction of oral dose absorbed, AUCoral vs AUCiso) [1, 10]: 106%
- Clearance [1, 10]: 1.07 L/h
- Distribution volume [1, 10]: 0.68 L/kg
- Half life [1, 10]: 28.4 h
- BP changes ([1]; subject TUMN3): None
- EKG changes ([1]; subject TUMN3): None
- Injection site irritation ([1]; subject TUMN3): None
- Pulse changes ([1]; subject TUMN3): None
- Other adverse events ([1]; subject TUMN3, cell wraps: Vasovagal response during IV line placement): Vasovagal
- Bioavailability (fraction of oral dose absorbed, AUCoral vs AUCiso) [1, 11]: 109%
- Clearance [1, 11]: 1.11 L/h
- Distribution volume [1, 11]: 0.70 L/kg
- Half life [1, 11]: 38.0 h
- bioavailability of an oral topiramate dose ([2]; oral administration, previously found): about 80%
- oral dose excreted in the urine as unchanged drug ([2]; oral administration): about 70%
- higher clearance in pediatric patients compared to adults ([2]; pediatric patients vs adults): 50%
- effect on AMPA-kainate receptor-mediated cell death and calcium influx, kainate-evoked currents [3]: attenuates
- effect on selective hypoxic-ischemic white matter injury [4]: protective against selective hypoxic-ischemic white matter injury
- intrinsic solubility ([5]; in water in the absence of cyclodextrin, room temperature): 7860 µg/mL
- phase solubility type ([5]; topiramate in CAPTISOL solutions in water): Type A-linear

Compound: sulfobutylether-β-cyclodextrin [CAPTISOL®]
- water solubility [6]: > 90 g per 100 mL
- nephrotoxicity [7]: does not exhibit the nephrotoxicity associated with β-cyclodextrin
